How the values were obtained:
Test in all cases: Cell proliferation Ex.3
Type in all cases: cell-based
RAMOS = settings: Homo sapiens
Procedure: (§1) A dose response relationship on cell proliferation was assessed for Compound 13 on 140 tumor cell lines. […] Cells were cultured in the appropriate media. For the assays, cells were seeded in white cell culture-treated flat and clear bottom multiwell plates and incubated at 37° C. overnight before compound was added. […] on the medium, cell plates were equilibrated to room temperature for one hour, CellTiterGlo reagent (Promega) was added and luminescence was measured approximately an hour later using a luminometer. Raw data were converted into percent cell viability relative to the high and low control, which were set to 10000 and 000, respectively.

C33A = settings: Homo sapiens, C-33-A
Procedure: as §1

BXPC3 = settings: Homo sapiens, BXPC-3
Procedure: as §1

L363 = settings: Homo sapiens, L-363
Procedure: as §1

SKNAS = settings: Homo sapiens, SK-N-AS
Procedure: as §1

CACO2 = settings: Homo sapiens, Caco-2
Procedure: as §1

BT20 = settings: Homo sapiens, BT-20
Procedure: as §1

HCT15 = settings: Homo sapiens, HCT-15
Procedure: as §1

SU-DHL-10 = settings: Homo sapiens, SU-DHL10
Procedure: as §1

HS729 = system: HS729
Procedure: as §1

ASPC1 = settings: Homo sapiens
Procedure: as §1

K-562 = settings: Homo sapiens, K562
Procedure: as §1

UMUC3 = settings: Homo sapiens
Procedure: as §1

MDAMB435 = settings: Homo sapiens, MDA-MB-435
Procedure: as §1

HeLa = settings: Homo sapiens
Procedure: as §1

T24 = settings: Homo sapiens, T-24
Procedure: as §1

U87MG = settings: Homo sapiens, U-87 MG
Procedure: as §1

SAOS2 = settings: Homo sapiens, SAOS-2
Procedure: as §1

HCT116 = settings: Homo sapiens, HCT-116
Procedure: as §1

IMR90 = settings: Homo sapiens, IMR-90
Procedure: as §1

SKMEL28 = settings: Homo sapiens, SK-MEL-28
Procedure: as §1

NCIH460 = settings: Homo sapiens, NCI-H460
Procedure: as §1

SKBR3 = settings: Homo sapiens, SK-BR-3
Procedure: as §1

JEG3 = settings: Homo sapiens, JEG-3
Procedure: as §1

NCI-H292 = settings: Homo sapiens
Procedure: as §1

5637 = system: 5637
Procedure: as §1

C#C[C@]1(CO)O[C@@H](n2cc(F)c(N)nc2=O)C[C@@H]1O [compound 9]
IC50 (RAMOS; 72 h): 4.04 µM
IC50 (RAMOS; 120 h): 0.004 µM
IC50 (RAMOS; 168 h): 1.18 µM
IC50 (C33A; 72 h): > 10 µM
IC50 (C33A; 120 h): 2.93 µM
IC50 (C33A; 168 h): 3.07 µM
IC50 (BXPC3; BXPC3, 72 h): > 10 µM
IC50 (BXPC3; BXPC3, 120 h): 1.29 µM
IC50 (BXPC3; BXPC3, 168 h): 0.59 µM
IC50 (L363; L363, 72 h): > 10 µM
IC50 (L363; L363, 120 h): > 10 µM
IC50 (L363; L363, 168 h): > 10 µM
IC50 (SKNAS; 72 h): > 10 µM
IC50 (SKNAS; 120 h): > 10 µM
IC50 (SKNAS; 168 h): > 10 µM
IC50 (CACO2; CACO2, 72 h): > 10 µM
IC50 (CACO2; CACO2, 120 h): > 10 µM
IC50 (CACO2; CACO2, 168 h): > 10 µM
IC50 (BT20; BT20, 72 h): > 10 µM
IC50 (BT20; BT20, 120 h): > 10 µM
IC50 (BT20; BT20, 168 h): > 10 µM
IC50 (HCT15; HCT15, 72 h): > 10 µM
IC50 (HCT15; HCT15, 120 h): > 10 µM
IC50 (HCT15; HCT15, 168 h): > 10 µM
IC50 (SU-DHL-10; SU-DHL-10, 72 h): 0.14 µM
IC50 (SU-DHL-10; SU-DHL-10, 120 h): 61.5 µM
IC50 (SU-DHL-10; SU-DHL-10, 168 h): 3.86 µM
IC50 (HS729; HS729, 72 h): > 10 µM
IC50 (HS729; HS729, 120 h): > 10 µM
IC50 (HS729; HS729, 168 h): > 10 µM
IC50 (ASPC1; ASPC1, 72 h): > 10 µM
IC50 (ASPC1; ASPC1, 120 h): 0.72 µM
IC50 (ASPC1; ASPC1, 168 h): 0.49 µM
IC50 (K-562; K-562, 72 h): > 10 µM
IC50 (K-562; K-562, 120 h): > 10 µM
IC50 (K-562; K-562, 168 h): > 10 µM
IC50 (UMUC3; UMUC3, 72 h): > 10 µM
IC50 (UMUC3; UMUC3, 120 h): > 10 µM
IC50 (UMUC3; UMUC3, 168 h): > 10 µM
IC50 (MDAMB435; MDAMB435, 72 h): > 10 µM
IC50 (MDAMB435; MDAMB435, 120 h): > 10 µM
IC50 (MDAMB435; MDAMB435, 168 h): > 10 µM
IC50 (HeLa; 72 h): > 10 µM
IC50 (HeLa; 120 h): > 10 µM
IC50 (HeLa; 168 h): > 10 µM
IC50 (T24; T24, 72 h): > 10 µM
IC50 (T24; T24, 120 h): > 10 µM
IC50 (T24; T24, 168 h): > 10 µM
IC50 (U87MG; 72 h): > 10 µM
IC50 (U87MG; 120 h): > 10 µM
IC50 (U87MG; 168 h): > 10 µM
IC50 (SAOS2; SAOS2, 72 h): > 10 µM
IC50 (SAOS2; SAOS2, 120 h): > 10 µM
IC50 (SAOS2; SAOS2, 168 h): > 10 µM
IC50 (HCT116; HCT116, 72 h): > 10 µM
IC50 (HCT116; HCT116, 120 h): > 10 µM
IC50 (HCT116; HCT116, 168 h): > 10 µM
IC50 (IMR90; IMR90, 72 h): > 10 µM
IC50 (IMR90; IMR90, 120 h): > 10 µM
IC50 (IMR90; IMR90, 168 h): > 10 µM
IC50 (SKMEL28; SKMEL28, 72 h): > 10 µM
IC50 (SKMEL28; SKMEL28, 120 h): > 10 µM
IC50 (SKMEL28; SKMEL28, 168 h): > 10 µM
IC50 (NCIH460; NCIH460, 72 h): > 10 µM
IC50 (NCIH460; NCIH460, 120 h): > 10 µM
IC50 (NCIH460; NCIH460, 168 h): > 10 µM
IC50 (SKBR3; SKBR3, 72 h): 1.45 µM
IC50 (SKBR3; SKBR3, 120 h): 0.96 µM
IC50 (SKBR3; SKBR3, 168 h): 0.37 µM
IC50 (JEG3; JEG3, 72 h): > 10 µM
IC50 (JEG3; JEG3, 120 h): > 10 µM
IC50 (JEG3; JEG3, 168 h): > 10 µM
IC50 (NCI-H292; NCI-H292, 72 h): > 10 µM
IC50 (NCI-H292; NCI-H292, 120 h): > 10 µM
IC50 (NCI-H292; NCI-H292, 168 h): > 10 µM
IC50 (5637; 5637, 72 h): > 10 µM
IC50 (5637; 5637, 120 h): > 10 µM
IC50 (5637; 5637, 168 h): > 10 µM

— patent US20230293526A1, “METHOD FOR TREATING CANCER WITH A REVERSE TRANSCRIPTASE INHIBITOR” (PrimeFour Therapeutics, Inc., priority 2020, published 2023)
